The test system of series [1] is collagen-induced arthritis model. The series is described as follows: In vivo antirheumatic properties, collagen-induced arthritis model, therapy day 30-48. Set-up: species or system mice (m, DBA/1). As to conditions: i.v. day 30, 34, 37, 41, 44, 48; dosage [mg/Kg] MTX equivalents: MTX 6 × 35, AW054-EMC 6 × 20. Here is the method: Animals: mice (m, DBA/1; model: collagen-induced arthritis model) Therapy: day 30, 34, 37, 41, 44, 48; i. v. (10 mM sodium phosphate/5% D-glucose buffer pH 6.4); dosages relate to methotrexate equivalents.

Series [2] has as its system OVCAR-3 (ovarian carcinoma growing subcutaneously). The series is described as follows: In vivo tumor-inhibiting properties, OVCAR-3 model. Set-up: species or system nude mice NMRI. As to conditions: i.v. day 7, 14, 21, 28; dosage [mg/Kg] MTX equivalents: MTX 4 × 100, AW054-EMC 4 × 15, C175 3 × 15. As for the experimental part: Animals: nude mice NMRI; tumor model: OVCAR-3 (ovarian carcinoma growing subcutaneously) Therapy: day 7, 14, 21, 28; i. v. (10 mM sodium phosphate/5% D-glucose buffer pH 6.4); dosages relate to methotrexate equivalents.

In a further series the target is HSA (Homo sapiens, UniProt P02768). The series is described as follows: Bonding to HSA in human plasma (C18-RP-HPLC).
Series [3] is described as follows: Cleavage experiments of the albumin conjugates, summary of the examples. The class given is in vitro ADME. The conditions noted are these: after cleavage of the albumin conjugates. As for the experimental part:
It becomes evident from the examples that after incubation with human blood plasma, the corresponding albumin conjugate is substantially formed already after 2 min. […] The cleavage results in the formation of e.g. H-Lys(γ-MTX)-OH, which constitutes the only low-molecular cleavage product. […] In the case of the collagen-induced arthritis model, it is about 20% of the corresponding methotrexate equivalent dosage.

Series [4] has as its system collagen-induced arthritis model. The series is described as follows: Collagen-induced arthritis model, therapy twice a week as of day 14, 42 or 30 (Table 1: early treatment protocol). The class given is in vivo, mice (m, DBA/1). The conditions noted are these: 35 mg/kg, n = 15, early treatment protocol. Here is the method:
Animals: mice (m, DBA/1; model: collagen-induced arthritis model) Therapy: twice a week as of day 14, 42 and 30, respectively; i. v. (10 mM sodium phosphate/5% D-glucose buffer pH 6.4); dosages relate to methotrexate equivalents.

A short description of series [5]: synovial fluid of six patients suffering from rheumatoid arthritis. The conditions noted are these: human (patients suffering from rheumatoid arthritis), 37° C., up to four hours.
The nature of a further series: human blood plasma. The conditions noted are these: 37° C., up to 24 hours.
Another series has as its system human cathepsin B. The series is described as follows: human cathepsin B (2.1 U) in buffer (50 mM sodium acetate, 100 mM NaCl, 4 mM EDTA*2 Na, 8 mM L-cysteine, pH 5.0). The conditions noted are these: 37° C., up to 24 hours.
Series [6] deals with human plasma plasmin. The series is described as follows: human plasma plasmin (370 mU) in buffer (4 mM sodium phosphate, 150 mM NaCl, pH 7.4). The conditions noted are these: 37° C., up to 20 hours.
Series [7] can be described thus: OVCAR-3 tumor homogenate (homogenate of a human ovarian xenograft). The conditions noted are these: human ovarian xenograft (OVCAR-3), 37° C., up to four hours.
The format of series [8] is in vitro ADME, human. As for the experimental part: Preparation of the Tumor Homogenate: The Tumor Material is Comminuted by Means of a scalpel, and 200 mg of the mass are homogenized in a shaker with 800 μL buffer (Tris-buffer pH 7.4) with addition of 3-4 glass beads. Subsequently, centrifugation is carried out at 4° C. and the supernatant is aliquoted to 200 μL.
Now, 100 μL of the solution of the albumin conjugate EMC-D-Ala-Phe-Lys-Lys(γ-MTX)-OH described in Example 4 are diluted with 500 μL of a homogenate solution (homogenate, 1:2 diluted with buffer [4 mM sodium phosphate, 150 mM NaCl, pH 7.4]) and incubated at 37° C. The determination of the cleavage products is performed with the HPLC method described in Example 2 (FIG. 7).

In series [9] the target is human plasma plasmin (Homo sapiens, UniProt P00747). The class given is biochemical. As to conditions: pH 7.4. As for the experimental part:
Preparation of the albumin conjugate: 4.00 mg of EMC-D-Ala-Phe-Lys-Lys(γ-MTX)-OH are dissolved in 8 mL of a 5% HSA solution (Octopharm) at room temperature and shaken at 37° C. for 2 hours. Subsequently, the sample is brought to a concentration of 700 μM by concentration with Centriprep® disposable concentrators.
Cleavage by plasmin: Now, 100 μL of the solution of the albumin conjugate are diluted with 500 μL buffer (4 mM sodium phosphate, 150 mM NaCl, pH 7.4), 20 μL of human plasma plasmin (370 mU) are added and the mixture is incubated at 37° C. The determination of the cleavage products is performed with the HPLC method described in Example 2 (FIGS. 3 and 4).

Starred links: 1 amine or outer side, 2 acyl side, 3 side chain; linkers in the order of their positions; H or OH if unused. Non-standard residues stand in square brackets, D forms with d. Residues, ends and D or L forms follow the SMILES beside them. Groups on a side chain read outwards from the residue. *: point of attachment. γ‑MTX = gamma-methotrexate, CN(Cc1cnc2nc(N)nc(N)c2n1)c1ccc(C(=O)N[C@@H](CCC(=O)*)C(=O)O)cc1; DAMPA = CN(Cc1cnc2nc(N)nc(N)c2n1)c1ccc(C(=O)*)cc1; Hexanoyl(6-maleimido) = O=C1C=CC(=O)N1CCCCCC(=O)*; γGlu = O=C(O)[C@H](CCC(=O)[*:2])N[*:1]

Chain of HSA (P02768 25-609): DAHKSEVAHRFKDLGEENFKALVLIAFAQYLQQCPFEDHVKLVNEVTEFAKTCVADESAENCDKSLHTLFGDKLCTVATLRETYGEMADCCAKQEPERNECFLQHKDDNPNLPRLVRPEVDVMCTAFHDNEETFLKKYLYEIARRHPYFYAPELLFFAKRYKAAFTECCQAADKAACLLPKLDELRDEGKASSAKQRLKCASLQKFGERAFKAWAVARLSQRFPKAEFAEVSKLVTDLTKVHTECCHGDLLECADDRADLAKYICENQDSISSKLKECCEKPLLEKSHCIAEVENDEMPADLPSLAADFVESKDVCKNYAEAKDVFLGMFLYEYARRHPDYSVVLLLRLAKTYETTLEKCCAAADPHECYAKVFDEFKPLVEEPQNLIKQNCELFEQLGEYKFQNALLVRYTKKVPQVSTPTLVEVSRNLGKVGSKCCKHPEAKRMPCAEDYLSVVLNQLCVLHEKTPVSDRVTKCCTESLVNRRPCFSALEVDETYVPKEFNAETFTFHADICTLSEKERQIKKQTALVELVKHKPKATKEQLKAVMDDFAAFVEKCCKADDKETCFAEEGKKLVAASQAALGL
Chain of human plasma plasmin (Homo sapiens, UniProt P00747) (P00747 581-810 limits assumed): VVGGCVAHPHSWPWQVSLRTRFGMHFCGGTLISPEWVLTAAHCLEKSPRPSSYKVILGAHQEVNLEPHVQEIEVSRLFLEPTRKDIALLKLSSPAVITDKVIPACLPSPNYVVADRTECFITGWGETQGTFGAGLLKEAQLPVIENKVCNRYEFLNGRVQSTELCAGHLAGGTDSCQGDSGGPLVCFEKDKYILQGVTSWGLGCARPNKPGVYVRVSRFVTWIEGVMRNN
Chain of human plasma plasmin (Homo sapiens, UniProt P00747) (P00747 98-580 partner limits assumed): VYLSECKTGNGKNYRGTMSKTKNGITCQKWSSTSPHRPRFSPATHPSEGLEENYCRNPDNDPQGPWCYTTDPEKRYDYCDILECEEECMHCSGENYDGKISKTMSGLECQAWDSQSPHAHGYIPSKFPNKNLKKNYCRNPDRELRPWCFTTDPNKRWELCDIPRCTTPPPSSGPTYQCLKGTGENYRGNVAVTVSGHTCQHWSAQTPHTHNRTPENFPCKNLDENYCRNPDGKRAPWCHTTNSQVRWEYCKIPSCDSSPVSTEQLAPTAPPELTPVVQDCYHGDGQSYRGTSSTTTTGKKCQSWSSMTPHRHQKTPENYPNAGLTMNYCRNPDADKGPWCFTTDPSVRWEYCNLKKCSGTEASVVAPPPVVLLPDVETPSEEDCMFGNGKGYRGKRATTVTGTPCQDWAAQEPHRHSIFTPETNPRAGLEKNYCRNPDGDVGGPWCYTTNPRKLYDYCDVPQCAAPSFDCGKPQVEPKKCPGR

For the molecule `C[C@@H](NC(=O)CCCCCN1C(=O)C=CC1=O)C(=O)N[C@@H](Cc1ccccc1)C(=O)N[C@@H](CCCCN)C(=O)N[C@@H](CCCCNC(=O)CC[C@H](NC(=O)c1ccc(N(C)Cc2cnc3nc(N)nc(N)c3n2)cc1)C(=O)O)C(=O)O` [AW054-EMC, EMC-D-Ala-Phe-Lys-Lys(γ-MTX)-OH] ({Hexanoyl(6-maleimido)}-[dA]FKK([γGlu-DAMPA])-OH), the entries for the “change of body weight [%]” value in [1] and in series [2] were −0.2% and “+12%”, respectively.
Turning to `CSCC[C@H](NC(=O)[C@H](Cc1ccccc1)NC(=O)[C@H](C)NC(=O)[C@H](CCCNC(=N)N)NC(=O)CCCCCN1C(=O)C=CC1=O)C(=O)N[C@@H](CCCCNC(=O)CC[C@H](NC(=O)c1ccc(N(C)Cc2cnc3nc(N)nc(N)c3n2)cc1)C(=O)O)C(=O)O` [C162, EMC-Arg-Ala-Phe-Met-Lys(γ-MTX)-OH] ({Hexanoyl(6-maleimido)}-RAFMK([γGlu-DAMPA])-OH), the “bonding of the prodrug to HSA (albumin) in human plasma” value with HSA (200 μM, 2 min incubation with human blood plasma at 37° C., HPLC detection at 300 or 370 nm) is reported as “almost complete decrease of the prodrug peak”. For the same molecule, in the series with HSA (human blood plasma incubated with EMC (1000 μM) in advance, detection 370 nm), the “bonding of the prodrug to albumin in plasma with blocked cysteine-34-group” value is given as “does not show a bonding of the prodrug to albumin”.
For the molecule `CSCC[C@H](NC(=O)[C@H](C)NC(=O)[C@H](CCCNC(=N)N)NC(=O)[C@H](CCCNC(=N)N)NC(=O)CCCCCN1C(=O)C=CC1=O)C(=O)N[C@@H](CCCCNC(=O)CC[C@H](NC(=O)c1ccc(N(C)Cc2cnc3nc(N)nc(N)c3n2)cc1)C(=O)O)C(=O)O` [C175, EMC-Arg-Arg-Ala-Met-Lys(γ-MTX)-OH] ({Hexanoyl(6-maleimido)}-RRAMK([γGlu-DAMPA])-OH), the “change of body weight [%]” value in [2] is listed as “+7%”.
For `CN(Cc1cnc2nc(N)nc(N)c2n1)c1ccc(C(=O)NC(CCC(=O)NCCCCC(N)C(=O)O)C(=O)O)cc1` (centres unmarked) [H-Lys(γ-MTX)-OH], the “further cleavage of the cleavage product into MTX and lysine” value in series [3] is “not cleaved into MTX and lysine any more”.
As to `CN(Cc1cnc2nc(N)nc(N)c2n1)c1ccc(C(=O)N[C@@H](CCC(=O)O)C(=O)O)cc1` [MTX, Methotrexate], in series [1], the “RA score Tag 55” value is recorded as 8.30 and the “change of body weight [%]” value is recorded as “+6.9%”. Further, in [2], the “T/C [%] maximum” value was determined as 69% and the “change of body weight [%]” value is given as “+19%”. In [4], the “improved or achieved abatement after created disease, figure in parentheses (share of animals)” value is recorded as “(53)”; the “improved or achieved abatement after created disease, number of animals” value is listed as 8; the “mean arthritis score at the end of the test” value was 3.1; the “mean period of time until breakout of renewed arthritis after beginning of treatment” value came to 17.3 days. In series [4], the “occurrence of arthritis at the end of the test (%)” value is on record as “(60) %” and the “occurrence of arthritis at the end of the test, number of animals” value is listed as 9.
EMC-Arg-Ala-Phe-Met-Lys(γ-MTX)-OH: the fragment found entry in [5] was “H-Lys(γ-MTX)-OH, four hours”.
For the molecule “EMC-D-Ala-Phe-Lys-Lys(γ-MTX)-OH ({Hexanoyl(6-maleimido)}-[dA]FKK([γGlu-DAMPA])-OH; SMILES C[C@@H](NC(=O)CCCCCN1C(=O)C=CC1=O)C(=O)N[C@@H](Cc1ccccc1)C(=O)N[C@@H](CCCCN)C(=O)N[C@@H](CCCCNC(=O)CC[C@H](NC(=O)c1ccc(N(C)Cc2cnc3nc(N)nc(N)c3n2)cc1)C(=O)O)C(=O)O)”, the not cleaved result in the series “human blood plasma” was “loss of MTX is less than 10% after 24 hours”.
For the molecule HSA-EMC-D-Ala-Phe-Lys-Lys(γ-MTX)-OH, the cleaved bond entry with human cathepsin B was “Lys-Lys, one and four hours, respectively”; with human plasma plasmin [6], “Lys-Lys, one and four hours, respectively”. Further, in series [7], the fragment found result was “H-Lys(γ-MTX)-OH, four hours”.
Turning to “HSA-EMC-D-Ala-Phe-Lys-Lys(γ-MTX)-OH ({HSA-Hexanoyl(6-maleimido)}-[dA]FKK(γ‑MTX)-OH)”, the “cleavage in OVCAR-3 tumor homogenate” value in series [8] is “formation of H-Lys(γ-MTX)-OH as a cleavage product can be observed”. Also, the cleavage by plasmin result with human plasma plasmin [9] was “formation of H-Lys(γ-MTX)-OH as a cleavage product”.

For the origin of these results see patent publication US20100041615A1 (Medac Gesellschaft Fur Klinische Spezialpraparate MBH, priority 2006, published 2010).
